The term Ki denotes the equilibrium dissociation constant of an inhibitor or competing ligand from its target.

Values joined by “and” are separate entries in the source; they are usually repeats but may differ in a detail not shown here. Identical values can stand only once. Like-named read-outs stand apart in the source and are kept apart here.

The values below come from US7470821B2, “Aldolase-inhibiting aromatic compounds” (Valorisation-Recherche, Limited Partnership, priority 2003, dated 2008).

The target in experiment [1] is T1, native (wild-type) rabbit muscle aldolase (Oryctolagus cuniculus, UniProt P00883).
T1 construct: made in house
T1 sequence (P00883 2-364): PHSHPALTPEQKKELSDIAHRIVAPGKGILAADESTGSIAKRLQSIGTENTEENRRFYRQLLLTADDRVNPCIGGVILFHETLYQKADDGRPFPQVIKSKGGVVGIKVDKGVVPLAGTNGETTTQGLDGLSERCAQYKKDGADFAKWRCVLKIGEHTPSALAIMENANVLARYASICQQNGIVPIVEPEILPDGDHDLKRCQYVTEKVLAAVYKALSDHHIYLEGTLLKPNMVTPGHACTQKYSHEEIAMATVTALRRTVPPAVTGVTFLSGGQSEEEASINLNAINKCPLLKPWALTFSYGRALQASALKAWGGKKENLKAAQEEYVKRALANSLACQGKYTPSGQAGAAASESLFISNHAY
The experiment can be described thus: UV-visible differential spectroscopy (method A) of aldolase-inhibitor complex formation. The experiment is classed as binding. As to conditions: for ΔA relative to 432 nm / kapp: wild-type; for kapp: 431 nm. As to the method: Absorption spectra are measured using a Cary 1E Varian spectrophotometer at 25° C. The same TEA buffer is used for titrations and activity analyses. Absorption spectra are measured by two different methods, in particular as described in Gefflaut T. et al., 1986 (Bioorg. Med. Chem., 4:2043-2054) and Blonski C. et al., 1997 (Biochem J. 323:71-77).
(§1) For method A, absorption spectra are recorded as a function of time, between 250 and 500 nm, or at wavelengths corresponding to maximum or minimum absorption. Measurements are begun by adding FHN-P at varying final concentrations (0.1-1 mM) in the TEA buffer containing a fixed concentration of aldolase (10 μM of subunits). Measured absorption spectra for the enzyme complex are corrected using the absorbance of the buffer, the FHN—P, and the enzyme (measured separately). The differential absorption spectra thus obtained are used to calculate the value of the constants that define the formation of the aldolase-inhibitor complex.
The apparent first-order rate constant (kapp) and the maximum threshold variations of absorption (ΔAmax) are obtained for each test by applying the slow-binding absorption data to the first-order kinetic equation (or to both first-order kinetic mechanisms). The dissociation constant (Kd) for the Schiff base formed between the FHN-P and the aminocaproic acid is obtained from the absorption differences calculated at equilibrium by using the equation eqn.(2). The value of the dissociation constant (Ki) for the rapidly formed EI complex and that of the constant k2 correspond to the slow formation of the EI* complex resulting from analysis of the values of the first-order constants based on the equations eqn.(1) or eqn.(3).
The slight differences in band positions with the reaction model may be attributed to differences in the FHN-P protein environment in comparison to the model system. The changing spectra of absorbance differences coincides with two distinct first-order mechanisms. The rapid kinetics phase can be seen in a more significant change in absorbance and saturating behavior at a high inhibitor concentration, correlated with a total loss of enzyme activity. A slow kinetics phase can also be seen when the analyses are carried out at saturating concentrations of hexitol-P2 (10 mM). This slow kinetics phase, which corresponds to a constant thirty times weaker and which contributes to one-fourth of the final absorbance variation is not linked to the inhibition observed. At these saturating concentrations, the molar absorption coefficients relative to the linked FHN-P are calculated assuming that the for active aldolase sites are occupied: Δε431=3600±200 M^−1.cm^−1; Δε376=−2140±110 M^−1.cm^−1; Δε293=12480±650 M^−1.cm^−1; and Δε268=5080±250 M^−1.cm^−1.
(§2) Residues of lysine 106, 146 and 229 residues are located at the active aldolase sites and thus are candidates for causing inactivation by forming a Schiff base with the FHN-P. In order to identify which lysine is responsible for the differential absorbances in the presence of FHN-P, sporadic mutations of these lysine residues were created and named: K107M (Research Collaboratory for Structural Bioinformatics Protein Databank), K146M (Blonski C. et al., 1997, Biochem. J. 323:71-77) and […] (Research Collaboratory for Structural Bioinformatics Protein Databank). […] UV-visible differential spectroscopy (method A) was used to examine formation of the enzyme complex for each sporadic mutation in the presence of a fixed concentration of FHN-P (300 μM).

For experiment [2], the target named is T2, K229M mutant RM aldolase (Oryctolagus cuniculus, UniProt P00883, K230M).
T2 construct: made in house
T2 sequence (P00883 1-364 K230M): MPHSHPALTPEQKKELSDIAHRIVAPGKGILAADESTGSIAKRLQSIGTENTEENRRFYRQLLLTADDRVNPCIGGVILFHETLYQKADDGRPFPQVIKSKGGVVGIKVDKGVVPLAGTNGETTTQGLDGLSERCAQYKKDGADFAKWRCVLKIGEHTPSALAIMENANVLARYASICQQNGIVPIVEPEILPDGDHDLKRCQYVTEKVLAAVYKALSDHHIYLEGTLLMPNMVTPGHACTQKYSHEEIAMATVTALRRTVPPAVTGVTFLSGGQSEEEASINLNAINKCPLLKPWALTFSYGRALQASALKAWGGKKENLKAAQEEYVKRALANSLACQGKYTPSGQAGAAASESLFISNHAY
The experiment can be described thus: UV-visible differential spectroscopy (method A) with mutated aldolase K229M. The class given is binding, rabbit. As to conditions: FHN-P 300 μM; for kapp: 431 nm. As to the method: as §1
Every UV-visible differential test spectroscopy test using mutated aldolases (10 μM of subunits) is carried out using method A. • Monitored by Electrospray Ionization Mass Spectrometry (ESI-MS).
as §2

Where [3] appears, read: formation of EI* complex, UV-visible differential spectroscopy.
Setting [4] is: FHN-P 300 μM, first (rapid) phase.
Setting [5] is: FHN-P 300 μM, second (slow) phase.

Turning to `O=Cc1c(O)ccc2cc(OP(=O)(O)O)ccc12` [FHN-P, 5-formyl-6-hydroxy-2-naphthylphosphate], the inhibition constant Ki in experiment [1] (EI complex, UV-visible differential spectroscopy, FHN-P 0.1-1 mM, aldolase 10 μM subunits, 25° C, read-out: Ki) is 125000 ± 25000 nM; in experiment [1] (calculated from the spectroscopy results, read-out: global inhibition constant Ki*), 25 nM and ~25 nM. Also, in experiment [1] (setting [3]), the k2 is 0.067 ± 0.004 min⁻¹. The t1/2 in experiment [1] (setting [3]) is around 6 min. Further, in experiment [1] (maximum inhibition, EI* complex), the “stoichiometry of FHN-P linked per tetrameric aldolase” value is given as 3.9-4.2 mols of FHN-P linked per tetrameric aldolase mole. In addition, the Residual specific activity entry is on record as “ud (undetected)” in experiment [1] (wild-type aldolase, FHN-P 300 μM) and “ud” in experiment [2]. Also, the “ΔA relative to 432 nm” value came out at 100% in experiment [1] (setting [4]), 25% in experiment [1] (setting [5]), 95% in experiment [2] (first (rapid) phase) and 25% in experiment [2] (second (slow) phase). In addition, the kapp in experiment [1] (setting [4]) was found to be 0.045 ± 0.0025 min⁻¹; in experiment [1] (setting [5]), 0.0015 ± 0.00035 min⁻¹; in experiment [2] (first (rapid) phase), 0.040 ± 0.0025 min⁻¹; in experiment [2] (second (slow) phase), 0.0015 ± 0.0003 min⁻¹.
